Among the test systems are HCT-15; OVCAR-4; RXF 393; Malme-3M; NCI/ADR-RES; MDA-N; SF-268; OVCAR-5; NCI-H226; SN12C; BT-549; U-251; SK-MEL-28; SNB-19; SNB-75; A549; MDA-MB-435; UACC-62; SW-620; UACC-257.
Holding throughout (test): NCI anticancer screen, dose series, 48 h

Experimental findings from ChEMBL document CHEMBL1201862, “PubChem BioAssay data set” (2004) are described below.

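How tested: cells in 96-well plates exposed to compound for 48 hours at five concentrations. Here, GI50 denotes the concentration required for 50% inhibition of growth.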 The source made the active and inactive calls. Rule as the data show it: active = GI50 up to about 1.1 µM and inactive = higher.

Regarding `CC1=NC2(CCCCC2)N(Cl)C(=O)C1SC#N` (stereo unspecified), the GI50 with HCT-15 is 23.8 µM; in the assay with OVCAR-4, 20.8 µM (inactive); with RXF 393 it was 18.3 µM (inactive); in the assay on Malme-3M, 18.2 µM (inactive); in the assay on NCI/ADR-RES, 20.3 µM (inactive); in the assay on MDA-N, 15.8 µM (inactive). For the same compound, the GI50 is 18 µM (inactive) with SF-268; 22.8 µM (inactive) in the assay with OVCAR-5; 24 µM (inactive) in the assay on NCI-H226; 19.4 µM (inactive) in the assay with SN12C; 14.4 µM (inactive) in the assay on BT-549; 19.4 µM (inactive) with U-251. The GI50 in the assay on SK-MEL-28 is 18 µM (inactive); in the assay on SNB-19, 23.4 µM (inactive); in the assay with SNB-75, 20.7 µM (inactive); in the assay with A549, 0.0504 µM (active); with MDA-MB-435, 19.2 µM (inactive); with UACC-62, 13.4 µM (inactive). Also, the GI50 with SW-620 is 12.8 µM (inactive).

In the case of `C1=C[C@@H]2c3ccc4cnccc4c3NC[C@@H]2C1`, the GI50 is > 100 µM (inactive) in the assay on UACC-257; more than 100 µM in the assay with HCT-15; > 100 µM (inactive) in the assay on RXF 393; > 100 µM (inactive) in the assay on Malme-3M; > 100 µM (inactive) in the assay on NCI/ADR-RES; > 100 µM (inactive) in the assay with MDA-N. For the same compound, the GI50 in the assay on SF-268, with OVCAR-5, with NCI-H226, with SN12C, in the assay with BT-549 and with U-251 was > 100 µM (inactive) each time. Further, the GI50 is > 100 µM (inactive) with SK-MEL-28; > 100 µM (inactive) with SNB-19; > 100 µM (inactive) in the assay with SNB-75; > 100 µM (inactive) with A549; > 100 µM (inactive) in the assay on MDA-MB-435; 58.2 µM (inactive) in the assay on UACC-62. In addition, the GI50 in the assay on SW-620 is > 100 µM (inactive).

Consider `COc1ccc(OC)c([N+](=O)[O-])c1-c1nc2sccn2c1/C=N/N=C(N)N`, for which the GI50 in the assay with UACC-257 was 69.5 µM (inactive); with HCT-15 it was more than 100 µM; in the assay with RXF 393, > 100 µM (inactive); in the assay on Malme-3M, 35.2 µM (inactive); in the assay on NCI/ADR-RES, > 100 µM (inactive); with MDA-N it was 49.8 µM (inactive). The GI50 in the assay on SF-268 is 44.6 µM (inactive); in the assay on OVCAR-5, > 100 µM (inactive); with NCI-H226, > 100 µM (inactive); in the assay on SN12C it was > 100 µM (inactive); with BT-549, 53.2 µM (inactive); in the assay on U-251 it was 41.1 µM (inactive). The GI50 in the assay on SK-MEL-28 is 17.7 µM (inactive); with SNB-19 it was > 100 µM (inactive); in the assay with A549 it was > 100 µM (inactive); in the assay on MDA-MB-435, 52.7 µM (inactive); in the assay with UACC-62, 91.8 µM (inactive); with SW-620 it was 93.3 µM (inactive).

`NCCCN(CCCCN(CCCN)CCCc1ccccc1)CCCc1ccccc1`: the GI50 is 1.79 µM (inactive) in the assay with UACC-257; 1.96 µM in the assay with HCT-15; 4.89 µM (inactive) with OVCAR-4; 2.37 µM (inactive) in the assay on RXF 393; 20.1 µM (inactive) with NCI/ADR-RES; 1.74 µM (inactive) in the assay with MDA-N. The GI50 in the assay on SF-268 is 3.07 µM (inactive); with OVCAR-5, 11 µM (inactive); with NCI-H226, 17.6 µM (inactive); with SN12C it was 3.9 µM (inactive); with BT-549 it was 3.03 µM (inactive); with U-251 it was 1.98 µM (inactive). Besides, the GI50 was 1.51 µM (inactive) in the assay on SK-MEL-28; 1.19 µM (inactive) with SNB-19; 1.93 µM (inactive) in the assay on SNB-75; 3.23 µM (inactive) with A549; 1.74 µM (inactive) in the assay on MDA-MB-435; 1.74 µM (inactive) with UACC-62. Also, the GI50 in the assay on SW-620 was 2.86 µM (inactive).

Regarding `CC1CC[C@@]2(OC1)OC1C[C@H]3[C@@H]4C/C(=N\N(C)C)[C@@]5(O)CC(O)CC[C@]5(C)[C@H]4CC[C@]3(C)C1[C@@H]2C` (stereo partly specified), the GI50 was 67.5 µM (inactive) in the assay with UACC-257; 67.1 µM with HCT-15; 74.6 µM (inactive) in the assay on OVCAR-4; 22.9 µM (inactive) in the assay on RXF 393; 29.7 µM (inactive) in the assay with Malme-3M; 49.4 µM (inactive) with NCI/ADR-RES. Moreover, the GI50 was 23.3 µM (inactive) in the assay on MDA-N; 58.7 µM (inactive) with SF-268; 43.5 µM (inactive) in the assay on OVCAR-5; > 100 µM (inactive) with NCI-H226; 43.1 µM (inactive) with SN12C; 51.2 µM (inactive) in the assay with BT-549. For the same compound, the GI50 in the assay with U-251 was 37.2 µM (inactive); in the assay with SK-MEL-28 it was > 100 µM (inactive); in the assay with SNB-19, 38.7 µM (inactive); in the assay on A549, 48.6 µM (inactive); with MDA-MB-435, 29.8 µM (inactive); with UACC-62, 37.5 µM (inactive). The GI50 in the assay on SW-620 was 55.8 µM (inactive).

In the case of `Clc1cc(OC2C3CC4CC(C3)CC2C4)nc(Cl)n1` (stereo unspecified), the GI50 in the assay on UACC-257 was 13.9 µM (inactive); with HCT-15, 14 µM; in the assay with OVCAR-4, 17.1 µM (inactive); in the assay on RXF 393, 12.8 µM (inactive); in the assay on Malme-3M, 14.9 µM (inactive); in the assay with NCI/ADR-RES it was 31.7 µM (inactive). Further, the GI50 in the assay on MDA-N was 18.8 µM (inactive); in the assay with SF-268 it was 19.2 µM (inactive); with OVCAR-5, 21.3 µM (inactive); in the assay with SN12C it was 16.1 µM (inactive); in the assay with BT-549, 19.8 µM (inactive); in the assay on U-251, 17 µM (inactive). For the same compound, the GI50 in the assay with SK-MEL-28 is 15 µM (inactive); in the assay on SNB-19, 36.4 µM (inactive); in the assay with SNB-75 it was 39 µM (inactive); in the assay with A549, 29.6 µM (inactive); in the assay with MDA-MB-435 it was 17.4 µM (inactive); in the assay with UACC-62, 12.2 µM (inactive). Moreover, the GI50 with SW-620 was 13.9 µM (inactive).

Regarding `COC(=O)C1(SC)C2CCC3C2CCC31` (stereo unspecified), the GI50 in the assay with UACC-257 is > 100 µM (inactive); with HCT-15 it was more than 100 µM; in the assay with OVCAR-4, > 100 µM (inactive); with RXF 393, > 100 µM (inactive); in the assay with Malme-3M, > 100 µM (inactive); in the assay on NCI/ADR-RES it was > 100 µM (inactive). The GI50 with MDA-N, in the assay on SF-268, in the assay on OVCAR-5, with NCI-H226, in the assay on SN12C and in the assay with BT-549 was > 100 µM (inactive) each time. Besides, the GI50 in the assay with U-251, in the assay on SK-MEL-28, in the assay on SNB-19, in the assay on SNB-75, in the assay on A549 and in the assay with MDA-MB-435 was > 100 µM (inactive) in each case. Besides, in the assay on SW-620, the GI50 is > 100 µM (inactive).

Consider `CCOC(=O)c1cc(C2CCN(CC(C)CC)C2=S)c(C(=O)/C=C(/C)N)[nH]1` (stereo unspecified), for which the GI50 is > 50 µM (inactive) with UACC-257; more than 50 µM with HCT-15; > 50 µM (inactive) in the assay on RXF 393; > 50 µM (inactive) in the assay with Malme-3M; > 50 µM (inactive) in the assay with NCI/ADR-RES; > 50 µM (inactive) in the assay with MDA-N. The GI50 with SF-268, in the assay with OVCAR-5, in the assay on NCI-H226, in the assay on SN12C, with BT-549 and with U-251 was > 50 µM (inactive) in each case. Also, the GI50 in the assay with SNB-19, with SNB-75, in the assay on MDA-MB-435, in the assay on UACC-62 and with SW-620 was > 50 µM (inactive) each time.

Consider `O=c1[nH]c(=S)[nH]cc1CN1CCOCC1`, for which the GI50 in the assay on UACC-257 was > 100 µM (inactive); in the assay on HCT-15, more than 100 µM; in the assay with OVCAR-4 it was > 100 µM (inactive); with RXF 393, > 100 µM (inactive); with Malme-3M, > 100 µM (inactive); in the assay on NCI/ADR-RES, > 100 µM (inactive). The GI50 in the assay with MDA-N, in the assay on SF-268, with OVCAR-5, in the assay with SN12C, in the assay with BT-549 and with U-251 was > 100 µM (inactive) each time. The GI50 with SK-MEL-28, with SNB-19, with SNB-75, in the assay on A549, with MDA-MB-435 and in the assay with UACC-62 was > 100 µM (inactive) each time. In the assay with SW-620, the GI50 was > 100 µM (inactive).

`CC(=O)/N=C1\NC(=O)/C(=C/c2ccccc2Cl)N1C`: the GI50 in the assay on UACC-257 was > 100 µM (inactive); in the assay on HCT-15, 65.9 µM; in the assay on OVCAR-4 it was > 100 µM (inactive); with RXF 393 it was > 100 µM (inactive); in the assay with NCI/ADR-RES, 43.2 µM (inactive); with MDA-N, > 100 µM (inactive). Also, the GI50 in the assay on SF-268, in the assay with OVCAR-5, with NCI-H226, in the assay with SN12C, in the assay with BT-549 and in the assay with U-251 was > 100 µM (inactive) throughout. For the same compound, the GI50 in the assay with SK-MEL-28, in the assay with SNB-19, in the assay with SNB-75, in the assay on A549, in the assay with MDA-MB-435 and with UACC-62 was > 100 µM (inactive) throughout. Further, the GI50 with SW-620 was > 100 µM (inactive).

Consider `O=S(=O)(O)c1ccc2c(/N=N\c3ccc(F)cc3)c(O)c(S(=O)(=O)O)cc2c1`, for which the GI50 in the assay with UACC-257 was > 100 µM (inactive); with HCT-15, more than 100 µM; in the assay with OVCAR-4, > 100 µM (inactive); in the assay with RXF 393, > 100 µM (inactive); with Malme-3M, > 100 µM (inactive); in the assay with NCI/ADR-RES it was > 100 µM (inactive). The GI50 with MDA-N, in the assay on SF-268, in the assay with OVCAR-5, in the assay with SN12C, in the assay on BT-549 and in the assay with U-251 was > 100 µM (inactive) each time. Further, the GI50 in the assay on SK-MEL-28, with SNB-19, in the assay on SNB-75, in the assay on A549, in the assay with MDA-MB-435 and with UACC-62 was > 100 µM (inactive) each time. For the same compound, the GI50 in the assay on SW-620 was > 100 µM (inactive).
